Test results from US8987510B2, “Method for removal of the cyclic diester of a 2-hydroxy alkanoic acid from a vapor” (Purac Biochem BV, priority 2011, dated 2015).

Assays:
[1] = formation of lactide precipitates in circulating aqueous washing solution contacted with lactide-containing vapor
Source text: In a first experiment according to the invention, a vapor which contains lactide (i.e. the dehydrated cyclic diester of lactic acid or 2-hydroxy propanoic acid) is guided via vapor inlet pipeline 1 into wet washing column 2 shown in FIG. 1. […] Column 2 comprises packed bed 3, which extends over the whole internal diameter of the column. The column is further equipped with a vapor outlet pipeline 4 and a liquid distributor 5. The vapor travels through packed bed 3 and exits the column via vapor outlet pipeline 4. […] Pump 6 further sucks the vapor containing the cyclic diester, such as lactide, from inlet pipeline 1, through column 2, packed bed 3 and outlet line 4 to an exhaust collection system (not shown).
Column 2 further comprises a liquid storage compartment 7, which contains an aqueous solution. Additional liquid can be introduced in compartment 7 via liquid inlet pipeline 8. […] This solution is circulated through a liquid circulation system comprising liquid circulation pipeline 9, which circulation is powered by liquid pump 10. In practice, the aqueous solution is pumped from the liquid storage compartment 7 via pipeline 9 and heat exchanger 11 to liquid distributor 5. In distributor 5, the alkaline solution is converted from a liquid stream into small droplets. These droplets fall onto and distribute over the upper surface 12 of packed bed 3. Due to gravity, the droplets of the aqueous solution travel through packed bed 3 and fall in the aqueous solution present in storage compartment 7. The size of compartment 7 depends on residence time required under the operation conditions used.
During the whole experiment, the pH of the solution was maintained above 10. This was achieved by the addition of a base. In the present experiment, sodium hydroxide was used as the base. It appeared to be advantageous to add the base continuously, preferably in liquid form. For this experiment, a commercially available stock solution of 50 w/w-% of NaOH in water (Brenntag, technical grade) was used. […]

[2] = solubility behavior of mandelide in neutral, acid and alkaline aqueous solution, visual inspection; format: physicochemical; conditions: 2% by weight mandelide, 20° C., stirred
Source text: In additional experiments according to the present invention, the lactide was replaced by mandelide, the cyclic diester of 2-hydroxy-2-phenylacetic acid (also known as mandelic acid). The solubility behavior of mandelide in a neutral solution, an acid solution and an alkaline solution has been monitored and mutually compared. For this purpose, the acid aqueous solution was made by dissolving 10% by weight of mandelic acid in water. An alkaline aqueous solution was made by adding NaOH until a pH of 13 was reached. The neutral aqueous solution consisted of pure, non-buffered water. To these three aqueous solutions, an amount of 2% by weight of mandelide was added. All solutions were kept at 20° C. and stirred for several hours. In this period of time, the solubility behavior of the mandelide in the aqueous solutions was followed by visual inspection.

With `CC1OC(=O)C(C)OC1=O` (stereo not drawn) [lactide] the lactide precipitates ([1]; alkaline aqueous solution, above pH 10, NaOH, around 15° C., approximately 15 mbar) was “no lactide precipitates have been observed”, the lactide precipitates ([1]; alkaline aqueous solution, pH between 7 and 10) was “formation of small lactide precipitates can occur” and the lactide precipitates ([1]; comparative: starting pH approximately 7, no base, pH drops below 4) was “part of the dissolved lactide precipitates”.
In the case of `O=C1OC(c2ccccc2)C(=O)OC1c1ccccc1` (stereo not drawn) [mandelide], the “mandelide dissolved after 60 minutes” value ([2]; acid solution (10% by weight mandelic acid in water)) is reported as “almost all of the added mandelide was still not dissolved”, the “added mandelide dissolved after 60 minutes” value ([2]; alkaline solution (NaOH, pH 13)) is reported as “approximately 50%” and the “mandelide dissolved after 60 minutes” value ([2]; neutral solution (pure, non-buffered water)) is reported as “not been dissolved at all”.
